Entries after “also recorded” stand apart in the source; their conditions may differ. Where two headings read alike, the source gives them in different places.
Test system: bacteria, fungi, and/or yeasts
Format: binding
[1] = microorganism(s) the targeting peptide binds, as listed in Table 2
[2] = microorganism(s) listed as target(s) of the targeting peptide, wrapped target lists given cell by cell
[3] = microorganism(s) that the targeting peptide binds, as listed in Table 2

| Substance | Target(s) [1] | Target(s) [2] | other results |
| --- | --- | --- | --- |
| 1T-37 (YIVGALVILAVAGLIYSMLRKA) | S. mutans, S. aereus, S. epidermidis,; also recorded: C. jeikeium, C. xerosis,; also recorded: C. striatum, P. aeruginosa | – | – |
| PF-045 (LDINDYRSTY) | – | S. epidermidis, E. coli, E. faecalis,; also recorded: C. jejuni | – |
| 1T-97 (GVAERNLDRITVAVAIIWTITIVGLGLVAKLG) | A. naeslundii, F. nucleatum, P. gingivalis,; also recorded: S. epidermidis, S. gordonii,; also recorded: S. mitis, S. mutans, S. oralis,; also recorded: S. salivarious, S. sanguinis | – | – |
| PF-031 (MPHHSTTSSRIVVPAHQSNMASTPNLSITP) | – | M. luteus, C. albicans | – |
| 1T-198 (MPVSKKRYMLSSAYATALGICYGQVATDEKESEITAIPDLLDYLSVEEYLL) | P. gingivalis, S. epidermidis, S. gordonii,; also recorded: S. mitis, S. mutans, S. oralis,; also recorded: S. sanguinis | – | – |
| PF-C281 (KKEKLLTAIRLQHRAEIRGYFTIFFLFFRI) | – | – | Target(s) [3]: A. naeslundii, F. nucleatum, P. gingivalis,; also recorded: S. mutans, T. denticola |
| 1T-66 (DTDCLSRAYAQRIDELDKQYAGIDKPL) | S. mutans, S. aureus, S. epidermidis,; also recorded: C. jeikeium, C. xerosis,; also recorded: C. striatum, P. aeruginosa | – | – |
| 1T-99 (MKAWLGQ) | S. gordonii, S. mitis, S. mutans,; also recorded: S. oralis, S. sanguinis | – | – |
| PF-C057 (YFWWYWVQDCIPYKNNEVWLELSNNMK) | – | – | Target(s) [3]: A. naeslundii, F. nucleatum, P. gingivalis,; also recorded: S. mutans |
| 1T-9 (WAWAESPRCVSTRSNIHALAFRVEVAALT) | M. xanthus | – | – |
| PF-788 (GLITVFAGTARILQLRRAAKKTHAAALR) | – | – | Target(s) [3]: Mycobacteria spp. |
| PF-164 (EEVSRALAGIGLGLGCRIG) | – | S. epidermidis, M. luteus, E. coli,; also recorded: C. jeikeium | – |
| 1T-288 (RWVGGEPSADIYLSAKDTKT) | – | F. nucleatum, S. gordonii, S. salivarious,; also recorded: S. sanguinis | – |
| 1T-226 (KLQEKQIDRNFERVSGYSTYRAVQAAKAKEKGFISLEN) | A. naeslundii, F. nucleatum, S. epidermidis,; also recorded: S. gordonii, S. mitis,; also recorded: S. mutans, S. oralis, S. salivarious,; also recorded: S. sanguinis | – | – |
| PF-127 (MLRYLSLFAVGLATGYAWGWIDGLAASLAV) | – | S. epidermidis, M. luteus, E. coli,; also recorded: P. aeruginosa, C. albicans,; also recorded: MRSA, S. pneumoniae, E. faecalis | – |
| 1T-67 (GQRQRLTCGRVSGCSEGPSREAAR) | S. aureus, S. epidermidis, C. jeikeium,; also recorded: C. xerosis, C. striatum,; also recorded: P. aeruginosa | – | – |
| 1T-302 (IIIILPKIYLVCKTV) | – | A. naeslundii, P. gingivalis, S. epidermidis,; also recorded: S. gordonii, S. mitis,; also recorded: S. mutans, S. oralis, S. salivarious,; also recorded: S. sanguinis | – |
| PF-018 (YYKTYFKEV) | – | E. coli, C. jeikeium | – |
| PF-S023 (MAEDERRALKRRTNRGRTRTRKRITV) | – | – | Target(s) [3]: S. epidermidis, MRSA |
| 1T-75 (GVARGLQLGIKTRTQWGAATGAA) | S. pneumoniae | – | – |
| 1T-82 (FGVGVGIALFMAGYAIGKDLRKKFGKSC) | S. pneumoniae | – | – |
| 1T-267 (RIKEERKNRSYKFFIWRLFDEKTGFI) | – | A. naeslundii, F. nucleatum, P. gingivalis,; also recorded: T. denticola, S. mitis,; also recorded: S. mutans, S. oralis, S. sanguinis | – |
| 1T-69 (ILSQEADRKKLF) | S. mutans, P. aeruginosa | – | – |

| Substance | Target(s) [1] | Target(s) [2] | other results |
| --- | --- | --- | --- |
| PF-039 (MLEEKNKSL) | – | P. mirabilis, C. jeikeium | – |
| 1T-140 (IKGTIAFVGEDYVEIRVDKGVKLTFRKSAIANVINNNQQ) | A. naeslundii, F. nucleatum, P. gingivalis,; also recorded: S. epidermidis, S. gordonii,; also recorded: S. mitis, S. mutans, S. oralis,; also recorded: S. salivarious, S. sanguinis | – | – |
| 1T-155 (LKLAFGVYPFQAMSQSDTAVSERNVLWR) | A. naeslundii, F. nucleatum, P. gingivalis,; also recorded: S. epidermidis, S. gordonii,; also recorded: S. mitis, S. mutans, S. oralis,; also recorded: S. salivarious, S. sanguinis | – | – |
| PF-C291 (HPFLTGTGCPLFLIFRLFFVKAYFSFTVF) | – | – | Target(s) [3]: A. naeslundii, F. nucleatum, P. gingivalis,; also recorded: S. mutans |
| 1T-285 (FFPYYLADFYKQLKFLNEYQTKNKDKVVEFK) | – | A. naeslundii, F. nucleatum, P. gingivalis,; also recorded: S. gordonii, S. mitis,; also recorded: S. mutans, S. oralis, S. salivarious,; also recorded: S. sanguinis | – |
| 1T-175 (GEPGSHSGDL) | A. naeslundii, F. nucleatum, P. gingivalis,; also recorded: S. epidermidis, S. gordonii,; also recorded: S. mitis, S. mutans, S. oralis,; also recorded: S. salivarious, S. sanguinis | – | – |
| 1T-136 (ELLTQIRLALLYSVNEW) | A. naeslundii, F. nucleatum, P. gingivalis,; also recorded: S. epidermidis, S. gordonii,; also recorded: S. mitis, S. mutans, S. oralis,; also recorded: S. salivarious, S. sanguinis | – | – |
| 1T-269 (PLYVAAVEKINTAKKH) | – | F. nucleatum, S. mutans, S. oralis,; also recorded: S. sanguinis | – |
| 1T-92 (GQDEGQRRAGVGEGQGVDG) | S. mitis, S. mutans | – | – |
| 1T-222 (RIEASLISAIMFSMFNAIVKFLQK) | F. nucleatum, S. sanguinis | – | – |
| 1T-258 (TINIDDKVLDYLKKINSKAITIDLIGCAS) | – | A. naeslundii, F. nucleatum, P. gingivalis,; also recorded: T. denticola, S. mitis,; also recorded: S. mutans, S. oralis | – |
| PF-C139 (LLASHPERLSLGVFFVYRVLHLLLENT) | – | – | Target(s) [3]: A. naeslundii, F. nucleatum, P. gingivalis,; also recorded: S. mutans, T. denticola |
| 1T-192 (ILVLLALQVELDSKFQY) | S. sanguinis | – | – |
| PF-017 (ESIIE) | – | E. coli | – |
| 1T-139 (AVAGAAVGALLGNDARSTAVGAAIGGALGAGAGELTKNK) | A. naeslundii, S. gordonii, S. mitis,; also recorded: S. mutans, S. oralis | – | – |
| 1T-98 (VRSAKAVKALTAAGYTGELVNVSGGMKAWLGQ) | A. naeslundii, F. nucleatum, P. gingivalis,; also recorded: S. epidermidis, S. gordonii,; also recorded: S. mitis, S. mutans, S. oralis,; also recorded: S. salivarious, S. sanguinis | – | – |
| PF-790 (PAGPDHLDQRDHR) | – | – | Target(s) [3]: Mycobacteria spp. |
| 1T-44 (DPALADFAAGMRAQVRT) | S. mutans, S. aureus, S. epidermidis,; also recorded: C. jeikeium, C. striatum,; also recorded: P. aeruginosa | – | – |
| 1T-14 (ALAGLAGLISGK) | S. mutans, S. aureus, S. epidermidis,; also recorded: C. xerosis | yeast and hyphal forms | – |
| 1T-102 (WKRLWPARILAGHSRRRMRWMVVWRYFAAT) | A. naeslundii, F. nucleatum, P. gingivalis,; also recorded: S. epidermidis, S. gordonii,; also recorded: S. mitis, S. mutans, S. oralis,; also recorded: S. salivarious, S. sanguinis | – | – |
| PF-789 (PRGAQSGHG) | – | – | Target(s) [3]: Mycobacteria spp. |
| TT-308 (GLVIIPNLIALIILFSQVRQQTKDYFSNPKLSSR) | – | F. nucleatum | – |
| PF-S015 (IENLERGARRPP) | – | – | Target(s) [3]: S. epidermidis, MRSA, C. jeikeium |

| Substance | Target(s) [1] | Target(s) [2] | other results |
| --- | --- | --- | --- |
| 1T-95 (GHLLRVGGRVGGVGGVAGACAQPFGGQ) | S. gordonii, S. mitis, S. mutans,; also recorded: S. oralis, S. sanguinis | – | – |
| 1T-77 (EMRISRIILDFLFLRKK) | S. pneumoniae | – | – |
| PF-040 (MIHLTKQNTMEALHFIKQFYDMFFILNFNV) | – | C. albicans hyphae; also recorded: S. epidermidis, M. luteus, P. mirabilis,; also recorded: E. coli, P. aeruginosa,; also recorded: C. albicans, MRSA, S. pneumoniae,; also recorded: E. faecalis, C. jeikeium,; also recorded: C. jejuni | – |
| 1T-34 (AFWLNILLTLLGYIPGIVHAVYIIAKR) | S. aureus, S. epidermidis, C. jeikeium,; also recorded: C. xerosis, C. striatum,; also recorded: P. aeruginosa | – | – |
| 1T-202 (LCRLEKLCKQFLRQDKVVTYYLMLPYKRAIEAFYQELKERS) | A. naeslundii, F. nucleatum, P. gingivalis,; also recorded: S. epidermidis, S. gordonii,; also recorded: S. mitis, S. mutans, S. oralis,; also recorded: S. salivarious, S. sanguinis | – | – |
| 1T-129 (YDKYIKYLSIQPPFIVYFI) | A. naeslundii, P. gingivalis, S. epidermidis,; also recorded: S. gordonii, S. mitis,; also recorded: S. mutans, S. oralis, S. salivarious,; also recorded: S. sanguinis | – | – |
| PF-035 (SFYESY) | – | S. epidermidis, M. luteus, E. coli,; also recorded: C. albicans, MRSA, C. jeikeium,; also recorded: C. jejuni | – |
| 1T-253 (KTKESLTQQEKKFLKDYDRKSLHHFRDILTYCFILDKLTNK) | – | A. naeslundii, F. nucleatum, P. gingivalis,; also recorded: S. epidermidis, S. gordonii,; also recorded: S. mitis, S. mutans, S. oralis,; also recorded: S. salivarious, S. sanguinis | – |
| PF-C003 (FCSVDHDVITIAADHVKQGAEA) | – | – | Target(s) [3]: A. naeslundii, P. gingivalis, S. mutans |
| PF-155 (GRYGDDSKERQGRAQ) | – | C. jeikeium | – |
| 1T-207 (SPLEKYGTGSMTALTFLLGCCLLVLSKKSR) | F. nucleatum, S. sanguinis | – | – |
| 1T-266 (RAGTWLVVDEIR) | – | S. sanguinis | – |
| 1T-46 (FSFKQRVMFRKEVERLR) | S. aureus, S. epidermidis, C. jeikeium,; also recorded: C. xerosis, C. striatum,; also recorded: P. aeruginosa | – | – |
| 1T-137 (PLNFYRAVKENRLPLSEKNINDFTNIKLKVSPKLINLLQESSIFYNFSPKKRNTN) | A. naeslundii, F. nucleatum, P. gingivalis,; also recorded: S. epidermidis, S. gordonii,; also recorded: S. mitis, S. mutans, S. oralis,; also recorded: S. salivarious, S. sanguinis | – | – |
| 1T-38 (VMFVLTRGRSPRPMIPAY) | S. mutans, S. aereus, S. epidermidis,; also recorded: C. jeikeium, C. xerosis,; also recorded: C. striatum, P. aeruginosa | – | – |
| PF-140 (FHRRVIRASEWALTTRSFSTPLRSAAR) | – | S. epidermidis, M. luteus, P. mirabilis,; also recorded: E. coli, P. aeruginosa,; also recorded: C. albicans, MRSA, S. pneumoniae,; also recorded: E. faecalis, C. jeikeium,; also recorded: C. jejuni, M. smegmatis | – |
| 1T-73 (GWWEELLHETILSKFKITKALELPIQL) | S. pneumoniae | – | – |
| 1T-64 (QTVHHIHMHVLGQRQMHWPPG) | S. aureus, S. epidermidis, C. jeikeium,; also recorded: C. xerosis, C. striatum,; also recorded: P. aeruginosa | – | – |
| 1T-193 (LMIFDKHANLKYKYGNRSFGVEAIM) | S. sanguinis | – | – |
| PF-634 (MPKARPVNHNKKKSKITIKSNFTLFYMFNP) | – | C. albicans hyphae | – |
| 1T-217 (MLSNVLSRSVVSPNVDIPNSMVILSPLLISISNYH) | F. nucleatum, S. sanguinis | – | – |
| PF-014 (HPTDNKHN) | – | E. coli, C. jeikeium | – |
| 1T-72 (EPTDGVACKER) | P. aeruginosa | – | – |

Reference: patent publication US20120003661A1, “METHODS AND DEVICES FOR THE SELECTIVE DETECTION OF MICROORGANISMS” (C3 JIAN, INC., priority 2010, published 2012)
